The target in one test is PDGFR-β (Homo sapiens (Human), UniProt P09619). The test is described as follows: PDGFR-β tyrosine kinase inhibitory action (HTRF KinEASE-TK). Format: biochemical. Particulars: PDGFR-β enzyme 1 ng/μL, 30° C. for 30 minutes; read-out: PDGF-β IC50. Here is the method: (§1) 1. Preparation of Test Substance
This DMSO solution was diluted by 8 times with an assay buffer 1 (50 mM HEPES (pH 7.0), 0.02% NaN3, 0.01% Bovine Serum Albumin, 0.1 mM orthovanadate, 1 mM Dithiothreitol, 5 mM MgCl2, and 1 mM MnCl2) and further diluted by 5 times with an assay buffer 2 (50 mM HEPES (pH 7.0), 0.02% NaN3, 0.01% Bovine Serum Albumin, 0.1 mM orthovanadate, 1 mM Dithiothreitol, 5 mM MgCl2, 1 mM MnCl2, and 40 nM Supplemented Enzymatic Buffer (cisbio)).
2. Measurement of PDGFR-β Tyrosine Kinase Inhibitory Action
For the measurement, the HTRF KinEASE-TK kit from Cisbio Bioassays SAS was used. To a 384 well plate, the test substance solution was added at 4 μL each, then 2 μL of a PDGFR-β enzyme solution (final concentration of 1 ng/μL, Carna Biosciences, Inc.) and 4 μL of a substrate solution obtained by adding 0.6 μM ATP to TK substrate-3-biotin (cisbio) were added, and the solution was allowed to react at 30° C. for 30 minutes at a final concentration of the test substance being 0.01 to 10,000 nM.
Thereafter, 10 μL of a detection solution (cisbio) was added to each well and allowed to react at 30° C. for 1 hour. The fluorescence intensity was measured with a microplate reader (Spectra Max M5, Molecular device).
(§2) 3. Analysis of Measurement Results

Test [1] deals with pulmonary arterial smooth muscle cells. The test can be described thus: Suppression of proliferation of pulmonary arterial smooth muscle cells (PDGF-BB stimulation, BrdU). Type of test: cell-based. Particulars: PASMC, 24 h; healthy human derived pulmonary arterial smooth muscle cells; human PDGF-BB 10 ng/mL stimulation; BrdU uptake after 1 day; test substance final concentration 3 to 10,000 nM; read-out: Human normal PASMC proliferation suppression (PDGF stimulation_IC50). Here is the method: as §1
Furthermore, it was diluted by 50 times with distilled water.
2. Measurement of Suppression Action Against Proliferation of Pulmonary Arterial Smooth Muscle Cells
The day after healthy human derived pulmonary arterial smooth muscle cells were seeded onto a 96 well plate using a smooth muscle cell proliferation medium, the proliferation medium was replaced with a 0.1% FBS medium, and the cells were cultured for an additional day. A test substance solution was diluted by 10 times with a medium containing BrdU and human PDGF-BB (final concentration of 10 ng/mL, Sigma-Aldrich) and added to cells in equal amounts so as to reach a final concentration of 3 to 10,000 nM. Also, to the human PDGF-BB negative control, BrdU and 0.1% DMSO solution were added. After culturing for 1 day, the amount of BrdU taken up by the proliferating cells was measured using an anti-BrdU antibody.
as §2

PDGFR-β, sequence (P09619 33-1106): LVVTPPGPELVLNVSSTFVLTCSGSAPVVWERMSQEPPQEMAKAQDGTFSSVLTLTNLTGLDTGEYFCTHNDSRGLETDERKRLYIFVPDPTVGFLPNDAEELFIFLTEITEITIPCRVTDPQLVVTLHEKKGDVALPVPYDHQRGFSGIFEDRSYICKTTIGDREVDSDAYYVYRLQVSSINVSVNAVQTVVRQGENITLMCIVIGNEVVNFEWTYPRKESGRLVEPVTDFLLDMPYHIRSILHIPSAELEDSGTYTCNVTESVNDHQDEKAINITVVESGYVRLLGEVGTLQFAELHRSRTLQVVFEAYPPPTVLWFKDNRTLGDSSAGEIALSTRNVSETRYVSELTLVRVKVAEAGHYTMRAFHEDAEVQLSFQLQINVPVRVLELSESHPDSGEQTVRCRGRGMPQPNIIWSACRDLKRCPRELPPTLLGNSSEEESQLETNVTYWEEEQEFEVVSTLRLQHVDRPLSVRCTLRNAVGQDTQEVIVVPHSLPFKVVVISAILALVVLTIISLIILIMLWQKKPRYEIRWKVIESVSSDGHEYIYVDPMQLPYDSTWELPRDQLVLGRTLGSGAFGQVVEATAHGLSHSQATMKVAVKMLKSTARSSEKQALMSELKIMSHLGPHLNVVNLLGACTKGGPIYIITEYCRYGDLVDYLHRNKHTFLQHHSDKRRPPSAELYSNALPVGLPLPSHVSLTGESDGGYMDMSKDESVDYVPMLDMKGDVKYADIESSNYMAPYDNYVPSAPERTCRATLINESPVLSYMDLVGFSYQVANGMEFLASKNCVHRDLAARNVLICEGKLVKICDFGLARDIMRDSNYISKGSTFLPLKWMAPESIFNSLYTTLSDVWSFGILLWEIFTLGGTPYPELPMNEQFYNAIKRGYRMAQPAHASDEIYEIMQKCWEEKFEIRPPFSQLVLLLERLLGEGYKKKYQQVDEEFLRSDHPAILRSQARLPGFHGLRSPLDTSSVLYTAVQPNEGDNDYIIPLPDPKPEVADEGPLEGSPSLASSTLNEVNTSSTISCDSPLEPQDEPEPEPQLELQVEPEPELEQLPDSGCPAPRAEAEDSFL

With `Cc1ccc(C(=O)N[C@H]2CCCC[C@@H]2O)cc1NCc1cncc(-n2nccn2)c1` [Example 145, N-[(1S,2S)-2-hydroxycyclohexyl]-4-methyl-3-({[5-(2H-1,2,3-triazol-2-yl)pyridin-3-yl]methyl}amino)benzamide], the results for the IC50 (on PDGFR-β; in test [1]) were 100 nM and 47 nM, respectively.

`O=C(N[C@H]1CCCC[C@@H]1O)c1cccc(CNc2cncc(-c3ncccn3)c2)c1` [Example 150, N-[(1S,2S)-2-hydroxycyclohexyl]-3-({[5-(pyrimidin-2-yl)pyridin-3-yl]amino}methyl)benzamide]: the results for the IC50 (on PDGFR-β; in test [1]) were 360 nM and 300 nM, respectively.

`O=C(N[C@H]1CCCC[C@@H]1O)c1ccc(F)c(CNc2cncc(-c3ncccn3)c2)c1` [Example 151, 4-fluoro-N-[(1S,2S)-2-hydroxycyclohexyl]-3-({[5-(pyrimidin-2-yl)pyridin-3-yl]amino}methyl)benzamide]: the values for the IC50 (on PDGFR-β; in test [1]) were 170 nM and 250 nM, respectively.

For the molecule `Cc1ncc(C(=O)N[C@H]2CCCC[C@@H]2O)cc1CNc1cncc(C#CC2CC2)c1` [Example 157, 5-({[5-(cyclopropylethynyl)pyridin-3-yl]amino}methyl)-N-[(1S,2S)-2-hydroxycyclohexyl]-6-methylpyridine-3-carboxamide], the IC50 is 180 nM on PDGFR-β and 52 nM in test [1].

As to `O=C(N[C@H]1CCCC[C@@H]1O)c1ccc(Cl)c(OCc2cncc(-c3ncccn3)c2)c1` [Example 167, 4-chloro-N-[(1S,2S)-2-hydroxycyclohexyl]-3-{[5-(pyrimidin-2-yl)pyridin-3-yl]methoxy}benzamide], the IC50 (on PDGFR-β; in test [1]) was 210 nM each time.

Take `O=C(N[C@H]1CCCC[C@@H]1O)c1ccc(Cl)c(COc2cncc(-c3ncccn3)c2)c1` [Example 170, 4-chloro-N-[(1S,2S)-2-hydroxycyclohexyl]-3-({[5-(pyrimidin-2-yl)pyridin-3-yl]oxy}methyl)benzamide]: the IC50 at PDGFR-β was determined as 200 nM; in test [1] it was 130 nM.

Turning to `O=C(N[C@H]1CCCC[C@@H]1O)c1ccc(F)c(/C=C(\F)c2cncc(-c3ccccn3)c2)c1` [Example 177, 3-[(Z)-2-([2,3′-bipyridin]-5′-yl)-2-fluoroethenyl]-4-fluoro-N-[(1S,2S)-2-hydroxycyclohexyl]benzamide], the IC50 turned out to be 15 nM at PDGFR-β and 11 nM in test [1].

With `O=C(N[C@H]1CCCC[C@@H]1O)c1ccc(F)c(/C=C(\F)c2cncc(-c3ncccn3)c2)c1` [Example 178, 4-fluoro-3-{(Z)-2-fluoro-2-[5-(pyrimidin-2-yl)pyridin-3-yl]ethenyl}-N-[(1S,2S)-2-hydroxycyclohexyl]benzamide], the IC50 on PDGFR-β was determined as 26 nM; in test [1], 44 nM.

For `Cc1ccc(C(=O)N[C@H]2CCCC[C@@H]2O)cc1/C=C(\F)c1cnc2cccnn12` [Example 179, 3-[(Z)-2-fluoro-2-(imidazo[1,2-b]pyridazin-3-yl)ethenyl]-N-[(1S,2S)-2-hydroxycyclohexyl]-4-methylbenzamide], the results for the IC50 (at PDGFR-β; in test [1]) were 5.9 nM and 20 nM, respectively.

In the case of `Cc1ncc(C(=O)N[C@H]2CCCC[C@@H]2O)cc1/C=C(\F)c1cncc(-c2ccccn2)c1` [Example 180, 5-[(Z)-2-([2,3′-bipyridin]-5′-yl)-2-fluoroethenyl]-N-[(1S,2S)-2-hydroxycyclohexyl]-6-methylpyridine-3-carboxamide], the IC50 at PDGFR-β worked out at 16 nM; in test [1], 32 nM.

As for `Cc1ccc(C(=O)N[C@H]2CCCC[C@@H]2O)cc1/C=C(\F)c1cncc(CN2CCN(C)CC2)c1` [Example 181, 3-[(Z)-2-fluoro-2-{5-[(4-methylpiperazin-1-yl)methyl]pyridin-3-yl}ethenyl]-N-[(1S,2S)-2-hydroxycyclohexyl]-4-methylbenzamide], the IC50 at PDGFR-β worked out at 100 nM; in test [1], 500 nM.

With `Cc1ccc(C(=O)N[C@H]2CCCC[C@@H]2O)cc1/C=C(\F)c1cncc(CN2CCOCC2)c1` [Example 182, 3-[(Z)-2-fluoro-2-{5-[(morpholin-4-yl)methyl]pyridin-3-yl}ethenyl]-N-[(1S,2S)-2-hydroxycyclohexyl]-4-methylbenzamide], the IC50 on PDGFR-β stood at 33 nM; in test [1] it was 190 nM.

Turning to `Cc1ccc(C(=O)N[C@H]2CCCC[C@@H]2O)cc1/C=C(\F)c1ccc(NCC2CC2)nc1` [Example 183, 3-[(Z)-2-{6-[(cyclopropylmethyl)amino]pyridin-3-yl}-2-fluoroethenyl]-N-[(1S,2S)-2-hydroxycyclohexyl]-4-methylbenzamide], the figures for the IC50 (at PDGFR-β; in test [1]) were 30 nM and 24 nM, respectively.

Regarding `O=C(N[C@H]1CCCC[C@@H]1O)c1ccc(F)c(/C=C(\F)c2cncc(N3CCOCC3)c2)c1` [Example 184, 4-fluoro-3-{(Z)-2-fluoro-2-[5-(morpholin-4-yl)pyridin-3-yl]ethenyl}-N-[(1S,2S)-2-hydroxycyclohexyl]benzamide], the IC50 was 51 nM on PDGFR-β and 82 nM in test [1].

Regarding `O=C(N[C@H]1CCCC[C@@H]1O)c1ccc(F)c(/C=C(\F)c2cncc(NC3CCOCC3)c2)c1` [Example 185, 4-fluoro-3-[(Z)-2-fluoro-2-{5-[(oxan-4-yl)amino]pyridin-3-yl}ethenyl]-N-[(1S,2S)-2-hydroxycyclohexyl]benzamide], the values for the IC50 (at PDGFR-β; in test [1]) were 5.1 nM and 28 nM, respectively.

Regarding `CN1CCN(Cc2cncc(/C(F)=C/c3cc(C(=O)N[C@H]4CCCC[C@@H]4O)ccc3F)c2)CC1` [Example 186, 4-fluoro-3-[(Z)-2-fluoro-2-{5-[(4-methylpiperazin-1-yl)methyl]pyridin-3-yl}ethenyl]-N-[(1S,2S)-2-hydroxycyclohexyl]benzamide], the figures for the IC50 (at PDGFR-β; in test [1]) were 150 nM and 220 nM, respectively.

Turning to `Cc1ncc(C(=O)N[C@H]2CCCC[C@@H]2O)cc1/C=C(\F)c1cncc(OCC2CC2)c1` [Example 187, 5-{(Z)-2-[5-(cyclopropylmethoxy)pyridin-3-yl]-2-fluoroethenyl}-N-[(1S,2S)-2-hydroxycyclohexyl]-6-methylpyridine-3-carboxamide], the IC50 at PDGFR-β came out at 14 nM; in test [1], 20 nM.

Regarding `Cc1ncc(C(=O)N[C@H]2CCCC[C@@H]2O)cc1/C=C(\F)c1cncc(N2CCOCC2)c1` [Example 188, 5-{(Z)-2-fluoro-2-[5-(morpholin-4-yl)pyridin-3-yl]ethenyl}-N-[(1S,2S)-2-hydroxycyclohexyl]-6-methylpyridine-3-carboxamide], the IC50 on PDGFR-β amounted to 68 nM; in test [1], 60 nM.

On to `Cc1ncc(C(=O)N[C@H]2CCCC[C@@H]2O)cc1/C=C(\F)c1ccc(N)nc1` [Example 189, 5-[(Z)-2-(6-aminopyridin-3-yl)-2-fluoroethenyl]-N-[(1S,2S)-2-hydroxycyclohexyl]-6-methylpyridine-3-carboxamide], for which the IC50 at PDGFR-β came to 200 nM; in test [1], 90 nM.

As to `Cc1ncc(C(=O)N[C@H]2CCCC[C@@H]2O)cc1/C=C(\F)c1cnc(N)nc1` [Example 190, 5-[(Z)-2-(2-aminopyrimidin-5-yl)-2-fluoroethenyl]-N-[(1S,2S)-2-hydroxycyclohexyl]-6-methylpyridine-3-carboxamide], the IC50 (on PDGFR-β; in test [1]) was 110 nM each time.

Take `Nc1ccc(/C(F)=C/c2cc(C(=O)N[C@H]3CCCC[C@@H]3O)ccc2F)cn1` [Example 191, 3-[(Z)-2-(6-aminopyridin-3-yl)-2-fluoroethenyl]-4-fluoro-N-[(1S,2S)-2-hydroxycyclohexyl]benzamide]: the IC50 came to 35 nM on PDGFR-β and 29 nM in test [1].

In the case of `Nc1ncc(/C(F)=C/c2cc(C(=O)N[C@H]3CCCC[C@@H]3O)ccc2F)cn1` [Example 192, 3-[(Z)-2-(2-aminopyrimidin-5-yl)-2-fluoroethenyl]-4-fluoro-N-[(1S,2S)-2-hydroxycyclohexyl]benzamide], the IC50 at PDGFR-β was 29 nM; in test [1], 24 nM.

Turning to `Cc1ccc(C(=O)N[C@H]2CCCC[C@@H]2O)cc1/C=C(\F)c1cncc(NC2CCN(C)CC2)c1` [Example 193, 3-[(Z)-2-fluoro-2-{5-[(1-methylpiperidin-4-yl)amino]pyridin-3-yl}ethenyl]-N-[(1S,2S)-2-hydroxycyclohexyl]-4-methylbenzamide], the IC50 at PDGFR-β turned out to be 1 nM; in test [1], 18 nM.

Values taken from US12509424B2, “Compound and composition as PDGF receptor kinase inhibitor” (NIPPON SHINYAKU CO., LTD., priority 2019, dated 2025).
